{"source": "patent US20260083768A1", "about": "“INFLAMMASOME INHIBITION FOR NEUROPROTECTION” (University of Virginia Patent Foundation, priority 2022, published 2026)", "key": {"[1]": {"system": "retinal electrical function", "assay": "Full-field scotopic ERG in RRD/SRR mouse model", "type": "in vivo, mice", "description": "FIGS. 7A-7D. K-9 improves ERG functional outcomes in RRD/SRR model (A) Experiment overview: the RRD/SRR model was established day 0 (SRI of 3 μl 0.03% CMC). K-9 (60 mg/kg) or PBS was administered days 0-10 twice daily IP. Scotopic ERG was measured at baseline, as well as days 7, 11, and 14. In 7A-D, n=10-12 per group. (B) ERG waveforms representative of the K-9 and PBS groups, at baseline and day 14. (C) Amplitudes of a- and b-waves over time in the K-9 (red) and PBS (blue) groups at the stimulation intensity of 1.0 log cd sec/m2. […] Data (7C-D) is represented as mean±SEM. (D) AA from baseline for PBS (blue) and K-9 (red) groups.\nRRD was induced in mice via subretinal injection (SRI) of 1% carboxymethylcellulose (CMC). To simulate outcomes following the clinical management of RRD, optimal conditions were determined in which SRI of CMC induced spontaneous retinal reattachment (SRR) over 10 days (RRD/SRR). […] Inflammasome activation was monitored by cleaved caspase-1 abundance, and photoreceptor death was assessed by TUNEL staining. Retinal function was assessed by full-field scotopic electroretinography (ERG). […]\nERG was recorded at baseline, as well as days 7, 11, and 14 following SRI of CMC. Mice (n=6) were dark adapted overnight, and then ERG was measured using Ganzfeld ERG (Phoenix Laboratories). […] Responses were recorded to white-flash stimuli ranging from −1.7 to 1.0 log cd s/m2. […]"}, "[2]": {"system": "photoreceptors", "assay": "TUNEL staining of retinal outer nuclear layer in mouse RRD model (photoreceptor death)", "type": "in vivo, mice", "description": "(§1) RRD was induced in mice via subretinal injection (SRI) of 1% carboxymethylcellulose (CMC). To simulate outcomes following the clinical management of RRD, optimal conditions were determined in which SRI of CMC induced spontaneous retinal reattachment (SRR) over 10 days (RRD/SRR). K-9, 3TC, or AZT was administered via intraperitoneal (IP) injection. Inflammasome activation was monitored by cleaved caspase-1 abundance, and photoreceptor death was assessed by TUNEL staining. Retinal function was assessed by full-field scotopic electroretinography (ERG).\n(§2) A persistent RRD model was established by subretinal injection (SRI) of 3 μl 1% carboxymethyl cellulose (CMC; Refresh Liquigel, Allergan, Irvine, CA, USA). The model of RRD/SRR was achieved by SRI of 3 μl 0.03% CMC. SRIs were performed as previously described (23) using a 35-gauge needle (Ito Co., Fuji, Japan).\n(§3) NRTIs and K-9 were delivered via intraperitoneal (IP) injection in equimolar amounts. Lamivudine (3TC, 50 mg/kg) or azidothymidine (AZT, 60 mg/kg) was injected twice daily (SelleckChem, Houston, TX, USA). Kamuvudine K-9 (3-methyl-3TC) was synthesized as previously described (21) and administered either at a low dose (K-9L; 90 mg/kg daily) or a high dose (K-9H; 60 mg/kg twice daily, equimolar to NRTI doses). IP injection of phosphate buffered saline (PBS) was used as control. […]"}, "[3]": {"system": "caspase-1", "assay": "Retinal cleaved caspase-1 immunoblot in mouse RRD model (inflammasome activation)", "type": "in vivo, mice", "description": "as §1, §2, §3"}, "[4]": {"system": "retinal function", "assay": "Scotopic ERG in rd10 mouse model of retinal neuronal degeneration", "type": "in vivo", "conditions": "rd10 mice; 60 mg/kg twice daily IP, P15 until P28; vs vehicle (PBS)", "description": "(§4) FIG. 8. K-9 protects retinal function. Starting at postnatal day 15 (P15) until P28, rd10 mice were treated with K-9 at 60 mg/kg twice daily via intraperitoneal injection or with an equal volume of vehicle (PBS). Retinal function was monitored with scotopic electroretinography (ERG).\nas §4, with “K-9” for “FIG. 8. K-9”, “function in the rd10 mouse model of retinal neuronal degeneration. rd10 is an autosomal missense R560C mutation in the Pde6b gene, which results in a recessively inherited retinal neuronal degeneration (FIG. 8).” for “function.”"}}, "data": [{"smiles": "CCOCC1OC(n2ccc(N(CC)CC)nc2=O)CS1", "note": "(stereo not shown) [K-9, 4-(diethylamino)-1-[2-(ethoxymethyl)-1,3-oxathiolan-5-yl]-1,2-dihydropyrimidin-2-one]", "values": [{"measurement": "retinal electrical function (ERG a- and b-wave amplitudes)", "setting": "[1]; RRD/SRR model (SRI 3 μl 0.03% CMC), K-9 60 mg/kg twice daily IP days 0-10, ERG days 7-14, vs PBS", "result": "preserves retinal electrical function"}, {"measurement": "ERG parameters following retinal reattachment", "setting": "[1]; RRD/SRR model, K-9 administered during the period of retinal detachment", "result": "improvement"}, {"measurement": "degree of photoreceptor protection", "setting": "[2]; day 3 RRD model, TUNEL, IP, mean±SEM, K-9 versus NRTIs P<0.05", "result": "56%±7%"}, {"measurement": "number of TUNEL+ cells in the ONL of the retina", "setting": "[2]; three days after inducing RRD, IP treatment, compared with PBS-treatment", "result": "dose-dependent reduction"}, {"measurement": "degree of suppression of caspase-1 activation", "setting": "[3]; day 3 RRD model, IP, mean±SEM, K-9 versus NRTIs P<0.05", "result": "84%±1%"}, {"measurement": "retinal cleaved caspase-1", "setting": "[3]; three days after inducing RRD (SRI 3 μl 1% CMC), IP treatment, compared with PBS-treated mice", "result": "dose-dependent and complete reduction"}, {"measurement": "ERG a-wave and b-wave", "setting": "[4]", "result": "completed protection"}]}]}
